From patent US20120220562A1, “Anti-Viral Compounds” (ABBOTT LABAORATORIES, priority 2011, published 2012)

System: HCV 1b-Con1 replicon
Test: HCV 1b-Con1 replicon assay in the presence of 5% FBS
Format: cell-based
Conditions: Hepatitis C virus

Row | SMILES | EC50 [nM]
1 | COC(=O)N[C@H](C(=O)N1CCC[C@H]1c1nc2ccc([C@H]3CC[C@H](c4ccc5nc([C@@H]6CCCN6C(=O)[C@@H](NC(=O)OC)C(C)C)[nH]c5c4)N3c3ccc(OCC(F)F)cc3)cc2[nH]1)C(C)C [Example 4.11, methyl {(2S)-1-[(2S)-2-{6-[(2R,5R)-1-[4-(2,2-difluoroethoxy)phenyl]-5-{2-[(2S)-1-{(2S)-2-[(methoxycarbonyl)amino]-3-methylbutanoyl}pyrrolidin-2-yl]-1H-benzimidazol-6-yl}pyrrolidin-2-yl]-1H-benzimidazol-2-yl}pyrrolidin-1-yl]-3-methyl-1-oxobutan-2-yl}carbamate] | < 0.1
2 | COC(=O)N[C@H](C(=O)N1CCC[C@H]1c1nc2cc([C@H]3CC[C@H](c4cc5nc([C@@H]6CCCN6C(=O)[C@@H](NC(=O)OC)[C@@H](C)OC)[nH]c5cc4F)N3c3cc(F)c(N4CCN(c5ccc(C(F)(F)F)cc5)CC4)c(F)c3)c(F)cc2[nH]1)[C@@H](C)OC [Example 6.15, methyl {(2S,3R)-1-[(2S)-2-{5-[(2R,5R)-1-(3,5-difluoro-4-{4-[4-(trifluoromethyl)phenyl]piperazin-1-yl}phenyl)-5-(6-fluoro-2-{(2S)-1-[N-(methoxycarbonyl)-O-methyl-L-threonyl]pyrrolidin-2-yl}-1H-benzimidazol-5-yl)pyrrolidin-2-yl]-6-fluoro-1H-benzimidazol-2-yl}pyrrolidin-1-yl]-3-methoxy-1-oxobutan-2-yl}carbamate] | < 0.1
3 | COC(=O)N[C@H](C(=O)N1CCC[C@H]1c1nc2cc([C@H]3CC[C@H](c4ccc5nc([C@@H]6CCCN6C(=O)[C@@H](NC(=O)OC)C(C)C)[nH]c5c4)N3c3cc(F)c(N4CCC(c5ccccc5)C4)c(F)c3)ccc2[nH]1)C(C)C (stereo partly drawn) [Example 4.33, methyl {(2S)-1-[(2S)-2-{5-[(2R,5R)-1-[3,5-difluoro-4-(3-phenylpyrrolidin-1-yl)phenyl]-5-{2-[(2S)-1-{(2S)-2-[(methoxycarbonyl)amino]-3-methylbutanoyl}pyrrolidin-2-yl]-1H-benzimidazol-6-yl}pyrrolidin-2-yl]-1H-benzimidazol-2-yl}pyrrolidin-1-yl]-3-methyl-1-oxobutan-2-yl}carbamate] | < 0.1
4 | COC(=O)N[C@H](C(=O)N1CCC[C@H]1c1nc2cc([C@H]3CC[C@H](c4ccc5[nH]c([C@@H]6CCCN6C(=O)[C@@H](NC(=O)OC)C(C)C)nc5c4)N3c3cc(F)c(N4CC5CCC4CC5)c(F)c3)ccc2[nH]1)C(C)C [Example 4.21, methyl {(2S)-1-[(2S)-2-{5-[(2R,5R)-1-[4-(2-azabicyclo[2.2.2]oct-2-yl)-3,5-difluorophenyl]-5-{2-[(2S)-1-{(2S)-2-[(methoxycarbonyl)amino]-3-methylbutanoyl}pyrrolidin-2-yl]-1H-benzimidazol-5-yl}pyrrolidin-2-yl]-1H-benzimidazol-2-yl}pyrrolidin-1-yl]-3-methyl-1-oxobutan-2-yl}carbamate] | < 0.1
5 | COC(=O)N[C@H](C(=O)N1CCC[C@H]1c1nc2cc([C@H]3CC[C@H](c4cc5nc([C@@H]6CCCN6C(=O)[C@@H](NC(=O)OC)C(C)C)[nH]c5cc4F)N3c3cc(F)c(N4CCC5(CC4)CC5)c(F)c3)c(F)cc2[nH]1)C(C)C [Example 6.12, methyl {(2S)-1-[(2S)-2-{5-[(2R,5R)-1-[4-(6-azaspiro[2.5]oct-6-yl)-3,5-difluorophenyl]-5-{6-fluoro-2-[(2S)-1-{(2S)-2-[(methoxycarbonyl)amino]-3-methylbutanoyl}pyrrolidin-2-yl]-1H-benzimidazol-5-yl}pyrrolidin-2-yl]-6-fluoro-1H-benzimidazol-2-yl}pyrrolidin-1-yl]-3-methyl-1-oxobutan-2-yl}carbamate] | < 0.1
6 | COC(=O)N[C@H](C(=O)N1CCC[C@H]1c1nc2cc([C@H]3CC[C@H](c4ccc5[nH]c([C@@H]6CCCN6C(=O)[C@@H](NC(=O)OC)C(C)C)nc5c4)N3c3cc(F)c(N4CCC(c5ccc(F)c(F)c5)CC4)c(F)c3)ccc2[nH]1)C(C)C [Example 3.44, methyl {(2S)-1-[(2S)-2-{5-[(2R,5R)-1-{4-[4-(3,4-difluorophenyl)piperidin-1-yl]-3,5-difluorophenyl}-5-{2-[(2S)-1-{(2S)-2-[(methoxycarbonyl)amino]-3-methylbutanoyl}pyrrolidin-2-yl]-1H-benzimidazol-5-yl}pyrrolidin-2-yl]-1H-benzimidazol-2-yl}pyrrolidin-1-yl]-3-methyl-1-oxobutan-2-yl}carbamate] | < 0.1
7 | COC(=O)N[C@H](C(=O)N1CCC[C@H]1c1nc2cc([C@H]3CC[C@H](c4cc5nc([C@@H]6CCCN6C(=O)[C@@H](NC(=O)OC)C6CCOCC6)[nH]c5cc4F)N3c3cc(F)c(N4CCN(c5c(F)cccc5F)CC4)c(F)c3)c(F)cc2[nH]1)C1CCOCC1 [Example 3.51, dimethyl ([(2R,5R)-1-{4-[4-(2,6-difluorophenyl)piperazin-1-yl]-3,5-difluorophenyl}pyrrolidine-2,5-diyl]bis{(6-fluoro-1H-benzimidazole-5,2-diyl)(2S)pyrrolidine-2,1-diyl[(1S)-2-oxo-1-(tetrahydro-2H-pyran-4-yl)ethane-2,1-diyl]})biscarbamate] | < 0.1
8 | COC(=O)N[C@H](C(=O)N1CCC[C@H]1c1nc2cc([C@H]3CC[C@H](c4cc5nc([C@@H]6CCCN6C(=O)[C@@H](NC(=O)OC)C(C)C)[nH]c5cc4F)N3c3cc(F)c(N4CCC5(CCCCC5)CC4)c(F)c3)c(F)cc2[nH]1)C(C)C [Example 4.53, methyl {(2S)-1-[(2S)-2-{5-[(2R,5R)-1-[4-(3-azaspiro[5.5]undec-3-yl)-3,5-difluorophenyl]-5-{6-fluoro-2-[(2S)-1-{(2S)-2-[(methoxycarbonyl)amino]-3-methylbutanoyl}pyrrolidin-2-yl]-1H-benzimidazol-5-yl}pyrrolidin-2-yl]-6-fluoro-1H-benzimidazol-2-yl}pyrrolidin-1-yl]-3-methyl-1-oxobutan-2-yl}carbamate] | < 0.1
9 | COC(=O)N[C@H](C(=O)N1CCC[C@H]1c1nc2cc([C@H]3CC[C@H](c4ccc5[nH]c([C@@H]6CCCN6C(=O)[C@@H](NC(=O)OC)C6CCOCC6)nc5c4)N3c3cc(F)c(N4CCC(c5ccccc5)CC4)c(F)c3)ccc2[nH]1)C1CCOCC1 [Example 3.23, dimethyl ({(2R,5R)-1-[3,5-difluoro-4-(4-phenylpiperidin-1-yl)phenyl]pyrrolidine-2,5-diyl}bis{1H-benzimidazole-5,2-diyl(2S)pyrrolidine-2,1-diyl [(1S)-2-oxo-1-(tetrahydro-2H-pyran-4-yl)ethane-2,1-diyl]})biscarbamate] | < 0.1
10 | COC(=O)N[C@H](C(=O)N1CCC[C@H]1c1nc2cc([C@H]3CC[C@H](c4ccc5[nH]c([C@@H]6CCCN6C(=O)[C@@H](NC(=O)OC)C(C)C)nc5c4)N3c3ccnc(F)c3)ccc2[nH]1)C(C)C [Example 1.4, methyl {(2S)-1-[(2S)-2-{5-[(2R,5R)-1-(2-fluoropyridin-4-yl)-5-{2-[(2S)-1-{(2S)-2-[(methoxycarbonyl)amino]-3-methylbutanoyl}pyrrolidin-2-yl]-1H-benzimidazol-5-yl}pyrrolidin-2-yl]-1H-benzimidazol-2-yl}pyrrolidin-1-yl]-3-methyl-1-oxobutan-2-yl}carbamate] | 0.1 to 1
11 | COC(=O)N[C@H](C(=O)N1C[C@@H](OC)C[C@H]1c1nc2cc([C@H]3CC[C@H](c4ccc5[nH]c([C@@H]6C[C@H](OC)CN6C(=O)[C@@H](NC(=O)OC)C(C)C)nc5c4)N3c3ccc(F)cc3)ccc2[nH]1)C(C)C [Example 3.10, methyl {(2S)-1-[(2S,4S)-2-{5-[(2R,5R)-1-(4-fluorophenyl)-5-{2-[(2S,4S)-4-methoxy-1-{(2S)-2-[(methoxycarbonyl)amino]-3-methylbutanoyl}pyrrolidin-2-yl]-1H-benzimidazol-5-yl}pyrrolidin-2-yl]-1H-benzimidazol-2-yl}-4-methoxypyrrolidin-1-yl]-3-methyl-1-oxobutan-2-yl}carbamate] | 0.1 to 1
12 | C=C1C[C@@H](c2nc3cc([C@H]4CC[C@H](c5ccc6[nH]c([C@@H]7CC(=C)CN7C(=O)[C@@H](NC(=O)OC)C(C)C)nc6c5)N4c4ccc(C(C)(C)C)cc4)ccc3[nH]2)N(C(=O)[C@@H](NC(=O)OC)C(C)C)C1 [Example 3.26, methyl {(2S)-1-[(2S)-2-{5-[(2R,5R)-1-(4-tert-butylphenyl)-5-{2-[(2S)-1-{(2S)-2-[(methoxycarbonyl)amino]-3-methylbutanoyl}-4-methylidenepyrrolidin-2-yl]-1H-benzimidazol-5-yl}pyrrolidin-2-yl]-1H-benzimidazol-2-yl}-4-methylidenepyrrolidin-1-yl]-3-methyl-1-oxobutan-2-yl}carbamate] | < 0.1
13 | COC(=O)N[C@H](C(=O)N1CCC[C@H]1c1nc2ccc([C@H]3CC[C@H](c4ccc5nc([C@@H]6CCCN6C(=O)[C@@H](NC(=O)OC)C(C)C)[nH]c5c4)N3c3cc(F)c(N4CCC(Cc5ccccc5)CC4)c(F)c3)cc2[nH]1)C(C)C [Example 4.47, methyl {(2S)-1-[(2S)-2-{6-[(2R,5R)-1-[4-(4-benzylpiperidin-1-yl)-3,5-difluorophenyl]-5-{2-[(2S)-1-{(2S)-2-[(methoxycarbonyl)amino]-3-methylbutanoyl}pyrrolidin-2-yl]-1H-benzimidazol-6-yl}pyrrolidin-2-yl]-1H-benzimidazol-2-yl}pyrrolidin-1-yl]-3-methyl-1-oxobutan-2-yl}carbamate] | < 0.1
14 | COC(=O)N[C@H](C(=O)N1CCC[C@H]1c1nc2cc([C@H]3CC[C@H](c4cc5nc([C@@H]6CCCN6C(=O)[C@@H](NC(=O)OC)C(C)C)[nH]c5cc4F)N3c3cc(F)c(N4CCC(c5ccc(F)cc5)CC4)c(F)c3)c(F)cc2[nH]1)C(C)C [Example 4.57, methyl {(2S)-1-[(2S)-2-{5-[(2R,5R)-1-{3,5-difluoro-4-[4-(4-fluorophenyl)piperidin-1-yl]phenyl}-5-{6-fluoro-2-[(2S)-1-{(2S)-2-[(methoxycarbonyl)amino]-3-methylbutanoyl}pyrrolidin-2-yl]-1H-benzimidazol-5-yl}pyrrolidin-2-yl]-6-fluoro-1H-benzimidazol-2-yl}pyrrolidin-1-yl]-3-methyl-1-oxobutan-2-yl}carbamate] | < 0.1
